Test results reported in PMC7463999, “Antioxidant, Anti-inflammatory and Neuroprotective Profiles of Novel 1,4-Dihydropyridine Derivatives for the Treatment of Alzheimer’s Disease” (Antioxidants, 2020).
Several values for one entry are separate records, joined by “and”; a condition that tells them apart may be missing. Equal values may be shown once. Read-outs that look alike come from different tables or passages of the source.

How the values were obtained:
[1] = Oxygen Radical Absorbance Capacity (ORAC) assay; conditions: Trolox equivalents, ORAC of Trolox = 1.0; AAPH, fluorescein
[2] = DPPH reduction assay; conditions: DPPH 100 µM, 1 h in the dark
Method: The final solution was incubated during 1 h in the dark. […] Results are expressed as a percentage of DPPH reduction by subtracting blank absorbance (Absblank) to sample absorbance (Abssample) and corrected by control absorbance, (Abscontrol, DPPH alone, as expressed below: % DPPH reduction = [100 − ((Abssample − Absblank) × 100/Abscontrol)](1)
Briefly, the compounds under assay (150 µL) at the desired concentration (1, 10, 60 and 100 µM) in methanol/water (80/20) were added to a solution of DPPH in methanol/water (80/20) (150 µL, 100 µM), in a clear bottom 96-well plate, and the final solution was incubated 1 h in the dark. Then, DPPH absorbance of blank (methanol/water), control
Optima plate-reader (BMG Labtech, Ortenberg, Germany) in duplicate.
Results are expressed as % of absorbance (Abs) reduction of control after subtracting blank absorbance, as expressed
% DPPH reduction = [100 – (Abssample-Absblank) x 100]/Abscontrol

[3] = system: primary glial cultures stimulated with LPS; assay: Nitrite production reduction (Griess) in LPS-stimulated mixed primary glial cultures; type: cell-based, rat
[4] = system: voltage-dependent Ca^2+ channels (VDCC); assay: Voltage dependent calcium channels blockade assay (Fluo-4, 70 mM K+); type: cell-based, human; conditions: compounds at 10 μM, SH-SY5Y, basal = 100% response
Method: Free cytosolic Ca^2+ was measured using the fluorescence Ca^2+ indicator Fluo-4/AM. SH-SY5Y cells were seeded in 96-well black bottom transparent plates at a density of 60,000 cells per well and cultured until they reach confluence. Cells were incubated with the Ca^2+ sensitive dye Fluo-4/AM at 5 µM in Krebs-HEPES buffer (KH) (145 mM NaCl, 4.9 mM KCl, 1.2 mM MgCl2, 2 mM CaCl2, 10 mM HEPES, 11 mM glucose, pH 7.4), and 0.05% pluronic acid, for 1 h at 37 °C in the dark. Then, cells were washed twice with KH solution to remove the excess of probe and compounds in solution were added. Test compounds at 10 µM were incubated 10 min before K^+ 70 mM was applied to trigger cytosolic Ca^2+ increase. Fluorescence was measured in a fluorescence microplate reader (FLUOstar Optima, BMG, Ortenberg, Baden-Wuerttemberg, Germany) at excitation and emission wavelengths 485 and 520 nm, respectively. To normalize Fluo-4 signals, Triton X-100 (5%) and subsequently MnCl2 1 M were applied to the cells to register maximal and minimal fluorescence, respectively. Data were calculated as a percentage of Fluorescence increment with respect to Fmax − Fmin. The percentage of response was calculated considering basal conditions as 100% response.
Voltage dependent Calcium Channel Blockade Assay
Free cytosolic Ca2+ was measured using the fluorescence Ca2+ indicator Fluo-4/AM.
SH-SY5Y cells were seeded in 96-well black bottom transparent plates at a density of 60,000 cells per well until reaching confluence. Cells were incubated with the Ca2+ sensitive dye fluo-4 AM at 5 µM in Krebs-Hepes buffer (KH) (145 mM NaCl, 4.9 mM KCl, 1.2 mM MgCl2, 2 mM CaCl2, 10 mM HEPES, 11 mM glucose, pH 7.4), and 0.05 % pluronic acid, for 1 h at 37 °C in the dark. Then, cells were washed twice with KH solution to remove the excess of probe and compounds in solution were added. Tested compounds at 10 µM were incubated 10 min before K+ 70 mM was applied to evoke the increment of cytosolic Ca2+. The experiments were analyzed at excitation and emission wavelengths of 485 and 520 nm, respectively, and fluorescence was measured in a fluorescence microplate reader (FLUOstar Optima, BMG, Germany). To normalize Fluo-4 signals, Triton X-100 (5 %) and subsequently MnCl2 1 M were applied to cells for registering both maximal and minimal fluorescence, respectively. Data were calculated as % F increment respect to Fmax – Fmin. % of blockade was calculated considering basal conditions as 100 % response.
Then, the donor filter plate was carefully put on the acceptor plate to form a “sandwich”, which was left undisturbed for 4 h at 25 °C. During this time, the compounds diffused from the donor plate through the polar brain lipid membrane (area = 0.28 cm2) into the acceptor plate. After incubation, the donor plate was carefully removed. UV plate reader determined the concentration of compounds and commercial drugs in both acceptor and […]

[5] = Blood-brain barrier permeation assay (PAMPA), porcine brain lipid; type: in vitro ADME
[6] = system: blood-brain barrier (passive diffusion); assay: as above; type: in vitro ADME; conditions: PAMPA; 100 µM, PBS pH 7.4, 4 h at 25 °C, mean ± SEM; read-out: PAMPA Pe
[7] = system: rat hippocampal slices; assay: ROS production (H2DCFDA) in rat hippocampal slices treated with okadaic acid; type: cell-based; conditions: OA 1 μM + compound 10 μM, 6 h
[8] = system: neuroblastoma cell line SH-SY5Y; assay: Cytotoxicity (neurotoxicity) in SH-SY5Y, MTT; conditions: 24 h
Method: LD50 in SH-SY5Y and primary glial culture cells
(§1) cell line SH-SY5Y and primary glial cultures. Viability was measured as
(§2) MTT reduction in presence of increasing concentrations of derivatives.
(§3) Values are expressed as LD50 calculated from dose-response curves of four
(§4) different concentrations. Data are expressed as mean  SEM of five
different experiments in triplicate.
(§5) SH-SY5Y or primary glial cells were cultured in 96-well plates for 24 h. Then, cells
(§6) were treated with the compounds at 10, 30 and 100 µM in the corresponding culture media
(§7) with 1 % FBS After 24 h, cell viability was assessed by the MTT-reduction assay. Control
(§8) cells were incubated with the same concentration of DMSO (0.1 % final concentration)
Viability assay by MTT-reduction
(§9) SH-SY5Y, primary glial culture cells and rat hippocampal slices viability was
(§10) measured by the MTT assay [11]. This method is based on the cleavage of the tetrazolium
(§11) ring of MTT by active dehydrogenases, generating a formazan precipitate. At the end of
(§12) the neuroprotection or toxicity experiments, an MTT solution was added to each well to
(§13) reach a final concentration of 0.5 mg/mL. After 2 additional hours of incubation, the
(§14) solution was replaced by 100 or 300 µL of DMSO to solubilize the formazan precipitate.
(§15) in control cells was considered as 100 % of cell survival and used to reference all

[9] = biological target: GSK-3β (Homo sapiens, UniProt P49841); assay: GSK-3β inhibition, Kinase-Glo luminescence assay
[10] = system: primary glial cultures; assay: Cytotoxicity (gliotoxicity) in primary glial cultures, MTT; conditions: 24 h
Method: as §1, §2, §3, §4
different experiments in triplicate.
Mixed glial cultures were obtained from cerebral cortex of 2-5-day-old Sprague-Dawley rats. After removal of blood vessels and meninges, the forebrains were dissociated in DMEM/F12 medium. After mechanical dissociation, cells were plated (3x10^5 cells/ml) in DMEM/F12 medium with 20 % fetal bovine serum (FBS) and 1 % penicillin/streptomycin (10,000 units), at 37 °C and in a 5 % CO2-supplemented air atmosphere. After 5 days, medium was substituted by DMEM/F12 medium with 10 %
FBS. Cells were cultured for 7-10 days before treatment.
as §5, §6, §7, §8
Viability assay by MTT-reduction
as §9
measured by the MTT assay [11].

[11] = system: SH-SY5Y human neuroblastoma cells; assay: Neuroprotection against okadaic acid (tau hyperphosphorylation), MTT; conditions: Homo sapiens, SH-SY5Y, 18 h, read-out: cell viability (percentage survival), okadaic acid toxicity
Method: (§16) Cells were pre-incubated with the corresponding compound at 1 μM in neuroblastoma culture medium. After 24 h, the medium was removed and replaced with 1% FBS neuroblastoma culture media containing the corresponding compound at 1 µM and the toxic stimuli, namely a mixture of rotenone and oligomycin A (R/O, 30 μM/10 μM, respectively), okadaic acid (OA) at 20 nM or a high concentration of KCl (70 mM). Cells were co-incubated for further 24 h with the R/O mixture or KCl solution, or 18 h with the OA solution. […] Control cells were incubated with the same amount of dimethyl sulfoxide (DMSO) without any drug. After the co-incubation period, cell viability was assessed by the 3-(4,5-dimethylthiazol-2-yl)-2,5-diphenyltetrazolium bromide (MTT) reduction method [56]; basal condition was considered as 100% survival.
(§17) Neuroprotection in the SH-SY5Y neuroblastoma cell line
(§18) A pre- and co-incubation protocol was followed. Cells were pre-incubated with the
(§19) corresponding compound at 1 M in neuroblastoma culture medium. After 24 h, the
(§20) medium was removed and replaced with 1% FBS neuroblastoma culture media
(§21) containing the corresponding compound at 1 µM and the toxic stimuli, namely a mixture
(§22) of rotenone and oligomycin A (30 M/10 M respectively), okadaic acid at 20 nM or a
(§23) high concentration of potassium chloride (70 mM). Cells were co-incubated for further
(§24) 24 h with the rotenone and oligomycin A or potassium chloride solution, or 18 h with the
(§25) okadaic acid solution. Control cells were incubated with the same amount of DMSO
(§26) and reference compounds in the rotenone-oligomycin A, okadaic acid or high
(§27) concentration of potassium models respectively. After the co-incubation period, cell
(§28) viability was assessed by the MTT-reduction method [11] considering basal conditions
Viability assay by MTT-reduction
as §9, §10, §11, §12, §13, §14, §15
(§29) treatments. The percentage of protection was calculated as follows: the percentage of cell
(§30) survival obtained with the toxic stimuli-treated cells subtracted to 100 was normalized to
(§31) 100 % of cell death. The percentage of protection was obtained by subtracting the
(§32) percentage of cell death in presence of the tested compound to 100 %.

[12] = system: SH-SY5Y human neuroblastoma cells; assay: Neuroprotection against rotenone/oligomycin A (oxidative stress), MTT; conditions: 1 μM, rotenone 30 μM / oligomycin A 10 μM, 24 h
Method: as §16, §17, §18, §19, §20, §21, §22, §23, §24, §25, §26, §27, §28
Viability assay by MTT-reduction
as §9, §10, §11, §12, §13, §14, §15, §29, §30, §31, §32

[13] = system: primary glial cultures stimulated with LPS; conditions: read-out: EC50 Nitrite Reduction; LPS 1 μg/mL; cited from earlier work

Sequence of GSK-3β (P49841 whole entry): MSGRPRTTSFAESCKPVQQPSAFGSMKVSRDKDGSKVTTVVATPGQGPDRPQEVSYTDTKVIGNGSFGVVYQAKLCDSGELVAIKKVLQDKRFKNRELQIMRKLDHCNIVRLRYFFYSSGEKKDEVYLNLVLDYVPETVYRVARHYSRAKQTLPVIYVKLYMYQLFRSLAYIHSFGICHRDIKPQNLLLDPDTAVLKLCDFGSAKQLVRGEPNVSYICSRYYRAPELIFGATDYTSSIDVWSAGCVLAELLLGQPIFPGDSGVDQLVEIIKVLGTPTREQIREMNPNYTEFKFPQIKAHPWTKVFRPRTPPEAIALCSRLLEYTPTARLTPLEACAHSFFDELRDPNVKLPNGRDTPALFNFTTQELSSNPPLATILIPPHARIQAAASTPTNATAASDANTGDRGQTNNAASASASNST

| Compound | ORAC (T. Eq.) [1] | IC50 [2] [µM] | EC50 ([3]; Rattus norvegicus, LPS 1 μg/mL, 24 h pre-incubation, 18 h co-incubation) [µM] | fold more potent as anti-inflammatory than 4f ([3]; ratio of nitrite reduction EC50 values) [fold] | VDCC % Response [4] | PAMPA Prediction ([5]; BBB permeability class from Pe) | BBB permeation prediction in words ([5]; PAMPA) | Papp at 4 h, 100 µM [6] [×10⁻⁶ cm/s] | free radical production (H2DCFDA fluorescence) [7] | SH-SY5Y LD50 [8] [µM] | IC50 [9] [µM] | Ki [9] [µM] | Glial cultures LD50 [10] [µM] | viability at 1 µM [11] [%] | percentage of protection, R/O toxicity [12] [%] | EC50 [13] [µM] |
| --- | --- | --- | --- | --- | --- | --- | --- | --- | --- | --- | --- | --- | --- | --- | --- | --- |
| Cc1[nH]nc2c1C(c1ccc(Br)cc1)C(C#N)=C(N)N2 (stereo not shown) [4g, 6-amino-4-(4-bromophenyl)-3-methyl-4,7-dihydro-2H-pyrazolo[3,4-b]pyridine-5-carbonitrile] | 0.96 T. Eq. and 0.96 ± 0.05 T. Eq. | 24.1 ± 3.74 | 4.5 ± 0.6 | 2.2 | 62% and 62.1 ± 1.6% | CNS+ | predicted to cross the BBB | 7.2 ± 2.4 | reduced free radical production to basal conditions | > 100 | 2.35 ± 1.1 | 1.65 | > 100 | 86.7 | 59.7 |  |
| C[S+]([O-])CCCCN=C=S (stereo not shown) [Sulforaphane] |  |  |  |  |  |  |  |  |  |  |  |  |  |  |  | 1.4 ± 0.3 |
